Assay [1] has as its target Ba/F3 EML4-ALK L1196M (Homo sapiens, UniProt Q9UM73, L1196M, cells depend on it). As to the kind of experiment: ALK inhibitory activity in Ba/F3 EML4-ALK L1196M, SRB staining of live cells. To be noted: read-out: Ba/F3 EML4-ALK L1196M, three days. In general terms: In SRB staining, fixed cells bind dye roughly in proportion to their protein.
Method: Particularly, 4,000 ALK L1196M cells containing ALK enzyme were distributed in each well of a 96 well plate together with 100 μl of DMEM (Dulbecco's Modified Eagle's Medium). […] DMSO (dimethylsulfoxide) was added to the well that was not loaded with the compound by the same amount as the compound. Three days after the addition of the compound, DMEM was eliminated. 10% TCA (trichloroacetic acid) was added to fix the cells. The wells were washed with running water three times and the live cells were stained with SRB solution (1× sulphorodamine B). Then, OD was measured to calculate the population of the live cells.
In assay [2] the test system is ALK L1196M cells containing ALK enzyme. Briefly: ALK inhibitory activity in ALK L1196M cells, SRB staining of live cells. The assay is classed as cell-based. As to the method: DMSO (dimethylsulfoxide) was added to the well that was not loaded with the compound by the same amount as the compound. Three days after the addition of the compound, DMEM was eliminated. 10% TCA (trichloroacetic acid) was added to fix the cells. The wells were washed with running water three times and the live cells were stained with SRB solution (1× sulphorodamine B). Then, OD was measured to calculate the population of the live cells. IC50 of the experimental compound used in the experiment above was calculated by using prism software (Version 5.01, Graphpad). […] Table 2 presents the ALK inhibitory activity of the compounds of the examples of the present invention in ALK L1196M containing ALK enzyme.

In assay [3] the test system is human non-small cell lung cancer cell line H3122. As to the kind of experiment: In vivo xenograft evaluation for H3122 induced lung cancer. Also noted: species or system nude mice (BALB/c nu/nu, female). The conditions noted are these: H3122 xenograft s.c. in nude mice, oral, q.d.×14, FIGS. 1 and 2. The text has this:
The nude mice (BALB/c nu/nu, female) used in this experiment were purchased from Charles River Japan, Inc. and raised and tested under SPF (Specific Pathogen Free) control. The human non-small cell lung cancer cell line H3122 maintained by Korea Research Institute of Chemical Technology was used in this experiment. The female nude mice adapted to the laboratory were implanted with cancer. Particularly, H3122 cells grown to the appropriate size for passage were cut into 3×3×3 mm^3, which was transplanted (s.c.) under the right side of the nude mouse. […] For the control, 20% PEG 400+3% Tween 80 in DDW was orally administered. For the experimental group (7 mice/group), the compound was dissolved in the same solvent of the control, which was orally administered 14 times in total (q.d.×14). The size of the cancer was measured every 2˜3 days after the administration using a caliper and the diameters (long diameter (a), short diameter (b)) of the cancer were measured. The size of the cancer (volume, V) was calculated according to mathematical formula 1. Volume (mm^3)=a×b^2/2 [Mathematical Formula 1] FIG. 1 is a graph showing the results of observing the size of cancer in the control group (CONTROL), the LDK378-treated group, and the group treated with the compound of example 14 over the time. […]

The subject of assay [4] is H3122, the non-small cell lung cancer cell line. As to the kind of experiment: ALK inhibitory activity in H3122, SRB staining of live cells. The assay is classed as cell-based. The conditions noted are these: Homo sapiens. The method, then: […] One day later, the compound of the present invention was added to each well at different concentrations of 10 μM, 2 μM, 0.4 μM, 0.08 μM, […], and 0.00032 μM. DMSO (dimethylsulfoxide) was added to the well that was not loaded with the compound by the same amount as the compound. Three days after the addition of the compound, DMEM was eliminated. 10% TCA (trichloroacetic acid) was added to fix the cells. The wells were washed with running water three times and the live cells were stained with SRB solution (1× sulphorodamine B). Then, OD was measured to calculate the population of the live cells. IC50 of the experimental compound used in the experiment above was calculated by using prism software (Version 5.01, Graphpad).
Table 2 presents the ALK inhibitory activity of the compounds of the examples of the present invention in H3122 containing ALK enzyme.

The target in assay [5] is ALK enzyme (Homo sapiens, UniProt Q9UM73). As to the kind of experiment: Anaplastic lymphoma kinase (ALK) inhibitory activity, HTRF kinase assay. The assay is classed as biochemical.
Sequence of ALK enzyme (Q9UM73 19-1620): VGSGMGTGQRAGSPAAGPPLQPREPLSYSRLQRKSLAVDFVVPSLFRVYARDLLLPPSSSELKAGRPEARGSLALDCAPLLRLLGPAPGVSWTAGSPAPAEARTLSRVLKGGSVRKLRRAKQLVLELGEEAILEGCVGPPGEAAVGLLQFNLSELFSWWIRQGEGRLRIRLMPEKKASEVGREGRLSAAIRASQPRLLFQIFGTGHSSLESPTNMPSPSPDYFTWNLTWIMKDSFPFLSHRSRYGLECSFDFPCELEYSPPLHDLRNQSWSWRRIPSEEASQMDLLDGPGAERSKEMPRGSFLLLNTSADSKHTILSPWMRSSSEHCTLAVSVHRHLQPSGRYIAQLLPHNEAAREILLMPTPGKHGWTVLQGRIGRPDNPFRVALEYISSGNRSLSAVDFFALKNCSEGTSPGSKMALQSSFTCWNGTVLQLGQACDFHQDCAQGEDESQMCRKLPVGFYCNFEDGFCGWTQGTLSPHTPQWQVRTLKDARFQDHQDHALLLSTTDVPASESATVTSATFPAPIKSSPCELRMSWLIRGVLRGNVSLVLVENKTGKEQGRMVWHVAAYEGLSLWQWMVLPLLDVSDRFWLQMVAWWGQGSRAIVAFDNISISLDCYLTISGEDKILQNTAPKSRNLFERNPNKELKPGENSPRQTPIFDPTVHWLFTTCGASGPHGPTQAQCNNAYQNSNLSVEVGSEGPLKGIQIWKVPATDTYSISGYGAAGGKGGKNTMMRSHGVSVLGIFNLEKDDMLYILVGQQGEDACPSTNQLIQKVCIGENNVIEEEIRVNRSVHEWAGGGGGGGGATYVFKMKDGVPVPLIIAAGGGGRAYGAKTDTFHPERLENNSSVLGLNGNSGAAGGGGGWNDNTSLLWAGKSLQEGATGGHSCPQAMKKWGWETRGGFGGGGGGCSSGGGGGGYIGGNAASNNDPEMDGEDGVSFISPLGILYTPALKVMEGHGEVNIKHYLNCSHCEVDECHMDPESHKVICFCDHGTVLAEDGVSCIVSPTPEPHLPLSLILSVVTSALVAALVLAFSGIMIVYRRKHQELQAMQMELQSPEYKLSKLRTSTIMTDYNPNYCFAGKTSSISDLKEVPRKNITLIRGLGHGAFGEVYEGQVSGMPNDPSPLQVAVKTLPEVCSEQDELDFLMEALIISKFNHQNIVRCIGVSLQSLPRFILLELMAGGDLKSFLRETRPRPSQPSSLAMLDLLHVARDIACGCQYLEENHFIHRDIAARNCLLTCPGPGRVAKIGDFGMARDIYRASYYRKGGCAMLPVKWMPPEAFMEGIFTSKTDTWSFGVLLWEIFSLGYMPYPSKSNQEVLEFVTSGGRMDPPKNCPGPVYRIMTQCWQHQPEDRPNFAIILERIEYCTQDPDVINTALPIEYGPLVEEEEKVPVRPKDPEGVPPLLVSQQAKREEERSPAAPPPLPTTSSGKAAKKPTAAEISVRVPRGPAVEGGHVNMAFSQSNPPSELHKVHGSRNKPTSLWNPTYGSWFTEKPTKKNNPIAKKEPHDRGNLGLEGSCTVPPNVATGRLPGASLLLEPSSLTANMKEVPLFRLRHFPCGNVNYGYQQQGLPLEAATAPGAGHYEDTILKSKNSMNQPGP
The mark [6] stands for this setting: 72 h, ALK L1196M cells, three days, SRB, read-out: ALK L1196M.
[7] abbreviates: ALK L1196M cells, read-out: ALK inhibitory activity in ALK L1196M containing ALK enzyme at the concentration.
Setting [8] is: NCI-H3122, 72 h, three days, SRB, read-out: Non-small cell lung cancer cell line H3122.
Setting [9] is: NCI-H3122, read-out: ALK inhibitory activity in H3122 containing ALK enzyme at the concentration range.
The mark [10] stands for this setting: read-out: anaplastic lymphoma kinase (ALK) inhibitory activity at the concentration.

Each structure is given as a SMILES string. Counter-ions that a name gives are not always drawn. Like-named read-outs stand apart in the source and are kept apart here.

Sequence of Ba/F3 EML4-ALK L1196M (Q9UM73 whole entry L1196M): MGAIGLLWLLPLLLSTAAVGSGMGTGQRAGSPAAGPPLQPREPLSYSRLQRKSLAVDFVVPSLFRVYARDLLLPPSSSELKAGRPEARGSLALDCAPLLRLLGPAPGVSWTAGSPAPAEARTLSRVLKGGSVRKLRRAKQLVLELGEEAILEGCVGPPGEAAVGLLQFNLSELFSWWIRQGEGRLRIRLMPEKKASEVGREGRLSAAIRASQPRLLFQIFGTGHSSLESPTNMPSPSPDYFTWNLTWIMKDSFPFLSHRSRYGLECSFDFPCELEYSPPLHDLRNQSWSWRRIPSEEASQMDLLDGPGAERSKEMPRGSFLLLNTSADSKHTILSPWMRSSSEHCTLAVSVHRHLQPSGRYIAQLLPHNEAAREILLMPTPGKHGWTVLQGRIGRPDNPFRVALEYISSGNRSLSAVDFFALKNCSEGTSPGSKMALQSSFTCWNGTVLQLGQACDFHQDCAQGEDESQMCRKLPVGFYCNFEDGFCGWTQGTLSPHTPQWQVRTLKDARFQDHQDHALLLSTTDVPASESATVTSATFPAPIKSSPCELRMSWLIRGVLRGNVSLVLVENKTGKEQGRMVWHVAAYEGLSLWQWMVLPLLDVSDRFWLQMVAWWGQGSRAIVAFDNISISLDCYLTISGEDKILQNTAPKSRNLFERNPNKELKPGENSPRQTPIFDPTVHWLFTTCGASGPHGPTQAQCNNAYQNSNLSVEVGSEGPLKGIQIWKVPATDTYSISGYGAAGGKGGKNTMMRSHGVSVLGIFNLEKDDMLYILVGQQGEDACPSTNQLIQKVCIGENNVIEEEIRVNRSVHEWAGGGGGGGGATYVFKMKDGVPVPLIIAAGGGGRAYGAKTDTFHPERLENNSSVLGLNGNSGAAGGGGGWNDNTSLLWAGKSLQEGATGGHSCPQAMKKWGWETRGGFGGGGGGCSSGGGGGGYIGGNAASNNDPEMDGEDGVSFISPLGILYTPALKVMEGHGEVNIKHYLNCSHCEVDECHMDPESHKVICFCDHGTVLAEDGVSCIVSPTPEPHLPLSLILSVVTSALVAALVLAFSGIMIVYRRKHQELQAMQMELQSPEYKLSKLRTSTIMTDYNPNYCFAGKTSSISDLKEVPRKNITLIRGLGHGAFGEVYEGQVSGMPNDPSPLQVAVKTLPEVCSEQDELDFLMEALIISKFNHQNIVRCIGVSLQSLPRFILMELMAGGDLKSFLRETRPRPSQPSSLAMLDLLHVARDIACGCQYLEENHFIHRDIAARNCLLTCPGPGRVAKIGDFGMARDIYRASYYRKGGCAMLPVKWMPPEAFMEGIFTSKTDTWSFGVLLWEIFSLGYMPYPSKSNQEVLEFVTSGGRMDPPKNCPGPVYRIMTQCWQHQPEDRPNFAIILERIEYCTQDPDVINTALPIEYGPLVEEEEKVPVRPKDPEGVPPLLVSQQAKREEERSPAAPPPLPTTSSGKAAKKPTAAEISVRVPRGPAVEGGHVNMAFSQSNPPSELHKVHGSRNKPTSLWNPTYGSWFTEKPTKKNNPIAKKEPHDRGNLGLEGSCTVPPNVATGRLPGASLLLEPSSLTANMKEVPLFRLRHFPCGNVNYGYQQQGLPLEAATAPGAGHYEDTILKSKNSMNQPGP

As for `COc1cc2c(cc1Nc1ncc(Cl)c(Nc3ccccc3S(=O)(=O)C(C)C)n1)CCC(N)C2(C)C` (stereo not drawn) [Example 22, N2-(6-amino-3-methoxy-5,5-dimethyl-5,6,7,8-tetrahydronaphthalene-2-yl)-5-chloro-N4-(2-(isopropylsulfonyl)phenyl)pyrimidine-2,4-diamine], the GI50 in assay [1] fell in the range of 10 to 100 nM. In addition, the IC50 in assay [2] (setting [6]) was less than 10 nM; in assay [2] (setting [7]) it was not above 10 nM; in assay [4] (setting [8]) it was 10 to 100 nM; in assay [4] (setting [9]) it was 10 to 100 nM; in assay [5] (HTRF, read-out: ALK) it was less than 10 nM; in assay [5] (setting [10]), not above 10 nM. Also, in assay [3], the “effect of inhibiting cancer size” value is reported as “excellent, similar to LDK378”.

Turning to `COc1cc2c(cc1Nc1ncc(Cl)c(Nc3ccccc3S(=O)(=O)C(C)C)n1)CCC(N(C)C)C2(C)C` (stereo not drawn) [Example 28, 5-chloro-N2-(6-(dimethylamino)-3-methoxy-5,5-dimethyl-5,6,7,8-tetrahydronaphthalene-2-yl)-N4-(2-(isopropylsulfonyl)phenyl)pyrimidine-2,4-diamine], the GI50 in assay [1] was in the range of 10 to 100 nM. For the same compound, the IC50 was less than 10 nM in assay [2] (setting [6]); not above 10 nM in assay [2] (setting [7]); 10 to 100 nM in assay [4] (setting [8]); 10 to 100 nM in assay [4] (setting [9]); less than 10 nM in assay [5] (HTRF, read-out: ALK); not above 10 nM in assay [5] (setting [10]).

Regarding `COc1cc2c(cc1Nc1ncc(Cl)c(Nc3ccccc3S(=O)(=O)C(C)C)n1)C(=O)C(N1CCOCC1)CC2` (stereo not drawn) [Example 3, 7-(5-chloro-4-(2-(isopropylsulfonyl)phenylamino)pyrimidine-2-ylamino)6-methoxy-2-morpholino-3,4-dihydronaphthalene-1(2H)-one], the GI50 in assay [1] is more than 100 nM. Moreover, the IC50 in assay [2] (72 h, read-out: ALK L1196M) was more than 100 nM; in assay [4] (setting [8]) it was more than 100 nM; in assay [5] (HTRF, read-out: ALK) it was 10 to 100 nM.

In the case of `COc1cc2c(cc1Nc1ncc(Cl)c(Nc3ccccc3S(=O)(=O)C(C)C)n1)CC/C(=N\N1CCN(C)CC1)C2(C)C` [Example 14, (E)-5-chloro-N4-(2-(isopropylsulfonyl)phenyl)-N2-(3-methoxy-5,5-dimethyl-6-(4-methylpiperazine-1-ylimino)-5,6,7,8-tetrahydronaphthalene-2-yl)pyrimidine-2,4-diamine], in assay [1], the GI50 fell in the range of 10 to 100 nM. Besides, the IC50 in assay [2] (setting [6]) was less than 10 nM; in assay [2] (setting [7]) it was not above 10 nM; in assay [4] (setting [8]) it was 10 to 100 nM; in assay [4] (setting [9]), 10 to 100 nM; in assay [5] (HTRF, read-out: ALK) it was less than 10 nM; in assay [5] (setting [10]), not above 10 nM. The “effect of inhibiting cancer size” value in assay [3] was “excellent, similar to LDK378”.

Take `COc1cc2c(cc1Nc1ncc(Cl)c(Nc3ccccc3S(=O)(=O)C(C)C)n1)C(C)(C)C(N)CC2` (stereo not drawn) [Example 23, N2-(7-amino-3-methoxy-8,8-dimethyl-5,6,7,8-tetrahydronaphthalene-2-yl)-5-chloro-N4-(2-(isopropylsulfonyl)phenyl)pyrimidine-2,4-diamine]: in assay [1], the GI50 is more than 100 nM. Also, the IC50 in assay [2] (72 h, read-out: ALK L1196M) is 10 to 100 nM; in assay [4] (setting [8]), more than 100 nM; in assay [5] (HTRF, read-out: ALK), 10 to 100 nM.

As to `COc1cc2c(cc1Nc1ncc(Cl)c(Nc3ccccc3S(=O)(=O)C(C)C)n1)CC/C(=N\N)C2(C)C` [Example 13, (E)-5-chloro-N2-(6-hydrazono-3-methoxy-5,5-dimethyl-5,6,7,8-tetrahydronaphthalene-2-yl)-N4-(2-(isopropylsulfonyl)phenyl)pyrimidine-2,4-diamine hydrochloride], in assay [1], the GI50 was more than 100 nM. Besides, the IC50 in assay [2] (setting [6]) was 10 to 100 nM; in assay [4] (setting [8]), 10 to 100 nM; in assay [4] (setting [9]), 10 to 100 nM; in assay [5] (HTRF, read-out: ALK), 10 to 100 nM.

Source of the values: US10369149B2, “4-(2-amino-tetrahydronaphthalenyl)pyrimidine derivative, preparation method therefor, and pharmaceutical composition for preventing or treating cancer, containing same as active ingredient” (KOREA RESEARCH INSTITUTE OF CHEMICAL TECHNOLOGY, priority 2015, dated 2019).
